# Results from patent US8350049B2, “Immobilized 1,2-benzisothiazolin-3-one” (priority 2006, dated 2013).
# What was measured:
# [1] = ambient temperature; cited from earlier work
# [2] = system: Pseudomonas aeruginosa DSM 939; assay: Dry-film bactericide test, modified Swiss Standard SNV195120, water-based interior flat paint; format: cell-based
# Protocol: (§1) The activity of the immobilized BIT/ZnO complex from Example 8 as a dry-film bactericide against Pseudomonas aeruginosa DSM 939 was determined in an ICI UK, Diamond Matt paint, a commercially available water-based interior flat paint (40% acrylic binder) according to the modified Swiss Standard SNV195120, which is described below
# The immobilized BIT/ZnO complex from example 8 was incorporated into the water-based interior flat paint at the levels shown in the Table below. The paints were allowed to equilibrate for one week at room temperature.
# A quantity of 50 mg of the BIT/ZnO complex was mixed with 100 g of the paint (resulting in 0.05% of the specimen 1 in the table below, the other specimens were prepared accordingly). Round filter papers (5.5 cm diameter) were coated with the test material to a thickness of 150 g/m2 wet and the resulting specimens dried at room temperature.
# One half of the test specimen was leached by tap water (9 liters per m^2) in a beaker. The specimens were dried at room temperature and sterilized by gamma radiation from a cobalt 60 source (25 kGy). In the microbiological test, Pseudomonas aeruginosa DSM 939 was used as the bacteria source.
# Liquid cultures of each bacterial strain were incubated over night at appropriate temperatures and then diluted 1:100,000 to result in a count of 10^4 cfu per ml. […]
# [3] = system: Pseudomonas aeruginosa DSM 939; assay: Dry-film bactericide test, modified Swiss Standard SNV195120, water-based interior eggshell paint; format: cell-based; set-up: key: 0H: No bacterial growth under the specimen, inhibition zone on the nutrient.; 0: No growth of bacteria under the specimen.; Growth of bacteria under the specimen
# Protocol: The activity of the immobilized BIT/ZnO complex from Example 8 as a dry-film bactericide against Pseudomonas aeruginosa DSM 939 was determined in a commercially available water-based interior eggshell paint (40% acrylic binder with an adhesion promoter) according to the modified Swiss Standard SNV195120. The composition of the paint, which is typically applied in wet rooms, is set out below.
# The microbiological test was performed according to the procedure described in Example 14.
# Escherichia coli [4] = assay: JIS Z2801 test after 24 h water leaching (severe environmental conditions), interior flat paint; format: cell-based; conditions: specimens leached in water 24 hours; contact time 24 hrs; active conc. 0.05%
# Protocol: (§2) The complex was coated on to Leneta Scrub Resistance test panels, with a dry film thickness of 200 micrometers, with a foam roller allowing a drying time of 18 hours between coats. The panels were equilibrated in the dark for 7 days. Subsamples were cut (each 50 mm×50 mm). The samples were inoculated with a suspension of the test bacteria and then incubated in chambers (1 per species) at 20° C. and 65% relative humidity.
# The activity of the immobilized BIT/ZnO complex from Example 8 as a dry-film bactericide after artificial aging against Escherichia coli was determined in ICI UK, Diamond Matt paint, a commercially available water-based interior flat paint (40% acrylic binder) according to the JIS Z2801 test. The paint specimens were prepared as described in example 19. The microbiological test was performed according to the procedure described in Example 16. After equilibration, the specimens were leached in water (24 hours) to simulate use conditions in a severe environment. The paint film was cleaned by water jet.
# [5] = system: Pseudomonas aeruginosa DSM 939; assay: JIS Z2801 test, interior acrylic wall paint of example 15; format: cell-based; conditions: contact time 8 hrs; active conc. 0.05%
# Protocol: as §2
# The activity of the immobilized BIT/ZnO complex from Example 8 as a dry-film bactericide against Pseudomonas aeruginosa DSM 939 was determined in the paint described in example 15 according to the JIS Z2801 test. The microbiological test was performed according to the procedure described in to Example 16.
# Escherichia coli [6] = assay: JIS Z2801:2000 (E) test, water-based interior flat paint; format: cell-based; conditions: contact time 8 hrs; active conc. 0.05%
# Protocol: The activity of the immobilized BIT/ZnO complex from Example 9 as a dry-film bactericide against Escherichia coli was determined in ICI UK, Diamond Matt is paint, a commercially available water-based interior flat paint (40% acrylic binder) according to the JIS Z2801:2000 (E) test (Japanese Industrial Standard Z2801:2000 (E) test, Antimicrobial products—Test for antimicrobial activity and efficacy).
# as §2
# Swabs were employed for recovery of the bacteria. From the blank sample 1.8×10^5 cfu/cm^2 were recovered. This number was taken as the starting bacterial load on the surface.
# [7] = system: Pseudomonas aeruginosa DSM 939; assay: JIS Z2801 test after 24 h water leaching (severe environmental conditions), paint of example 15; format: cell-based; conditions: specimens leached in water 24 hours; contact time 24 hrs; active conc. 0.05%
# Protocol: as §2
# The activity of the immobilized BIT/ZnO complex from Example 8 as a dry-film bactericide after aging against Pseudomonas aeruginosa DSM 939 was determined in the paint described in example 15 according to the JIS Z2801 test. The microbiological test was performed according to the procedure described in Example 16. After equilibration, the specimens were leached in water (24 hours) to simulate use conditions in a severe environment. The paint film was cleaned by water jet.
# [8] = system: Pseudomonas aeruginosa DSM 939; assay: JIS Z2801:2000 (E) test, water-based interior flat paint; format: cell-based; conditions: contact time 8 hrs; active conc. 0.05%
# Protocol: as §2
# as §1, with “in” for “in an”, “JIS Z2801:2000 (E) test. The microbiological test was performed according to the procedure” for “modified Swiss Standard SNV195120, which is”, “in Example 16.” for “below”
compound,measurement,setting,value
"O=c1[nH]sc2ccccc12 [BIT, 1,2-benzisothiazolin-3-one]",solubility of BIT in methanol,[1],greater than 5%
"CN(C)C(=S)SSC(=S)N(C)C [Thiram, tetramethylthiuram disulfide]",Psa unleached,[2]; active conc. 0.1%,0
same,Psa unleached,[2]; active conc. 0.2%,0
same,Psa unleached,[3]; active conc. 0.1%,G
same,Psa leached 24 h,[3]; active conc. 0.1%,G
same,Psa unleached,[3]; active conc. 0.2%,G
same,Psa leached 24 h,[3]; active conc. 0.2%,G
Zinc Pyrithione [ZPT],Kill rate % related to blank paint,Escherichia coli [4],20%
same,Log (Cfu/cm^2),Escherichia coli [4],3.04 Log (Cfu/cm^2)
same,Kill rate % related to blank paint,[5],39.5%
same,Log (Cfu/cm^2),[5],4.66 Log (Cfu/cm^2)
same,Kill rate % related to blank paint,Escherichia coli [6],96.4%
same,Log (Cfu/cm^2),Escherichia coli [6],3.76 Log (Cfu/cm^2)
same,Kill rate % related to blank paint,[7],85.5%
same,Log (Cfu/cm^2),[7],3.04 Log (Cfu/cm^2)
same,Kill rate % related to blank paint,[8],69.40%
same,Log (Cfu/cm^2),[8],4.18 Log (Cfu/cm^2)
